Experimental data reported in US9382254B2, “Compounds and pharmaceutical compositions thereof for the treatment of cystic fibrosis” (Galapagos NV, priority 2013, dated 2016).

Legend:
Type in all cases: cell-based
[1] = target: T1, CFTR ΔF508 mutant (Homo sapiens, UniProt P13569, DEL508-508); experiment: YFP-halide influx assay for the CFTR-ΔF508 mutation, PBS buffer (96 well); settings: CFBE41o- cells, forskolin 10.67 μM
T1 construct: expressed in transfected cells; host or cells: CFBE41o- (adenoviral transduction)
How it was run: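 CFBE41o- cells were adenovirally transduced with CFTR ΔF508 and YFP H148Q/I152L, then incubated 24 h at 27 °C or with a CFTR modulator at 37 °C. I⁻-induced fluorescence quenching was recorded over 7 s after injection; response expressed as 1−F/F0, with EC50 from concentration plots.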

[2] = target: T2, CFTR G551D mutant (Homo sapiens, UniProt P13569, G551D); experiment: YFP-halide influx assay for the CFTR-G551D mutation; settings: HEK293 cells, forskolin 10.67 μM
T2 construct: expressed in transfected cells; host or cells: HEK293 (reverse transfection with plasmid)
How it was run: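 Channel opening potentiation measured as 1−F/F0, where F is YFP fluorescence 7 s after iodide injection and F0 before; EC50 taken from concentration plot. Cells: HEK293 transiently expressing CFTR G551D plus halide-sensitive YFP (H148Q, I152L, F47L), 24 h at 37 °C, 5% CO2.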

[3] = target: T1, CFTR ΔF508 mutant; experiment: YFP-halide influx assay for the CFTR-ΔF508 mutation (384 well, FDSS/μCell); settings: CFBE41o- cells, CFTR-ΔF508, 1×D-PBS, fluorescence after 36 seconds
How it was run: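 Potentiator read-out as 1−F/F0, F taken 36 s after iodide addition, EC50 fitted against compound concentration. Cells: CFBE41o- expressing ΔF508 CFTR plus halide-sensitive YFP via adenovirus, rescued by 27 °C for 24 h or 24 h modulator at 37 °C.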

T2 sequence (P13569 whole entry G551D): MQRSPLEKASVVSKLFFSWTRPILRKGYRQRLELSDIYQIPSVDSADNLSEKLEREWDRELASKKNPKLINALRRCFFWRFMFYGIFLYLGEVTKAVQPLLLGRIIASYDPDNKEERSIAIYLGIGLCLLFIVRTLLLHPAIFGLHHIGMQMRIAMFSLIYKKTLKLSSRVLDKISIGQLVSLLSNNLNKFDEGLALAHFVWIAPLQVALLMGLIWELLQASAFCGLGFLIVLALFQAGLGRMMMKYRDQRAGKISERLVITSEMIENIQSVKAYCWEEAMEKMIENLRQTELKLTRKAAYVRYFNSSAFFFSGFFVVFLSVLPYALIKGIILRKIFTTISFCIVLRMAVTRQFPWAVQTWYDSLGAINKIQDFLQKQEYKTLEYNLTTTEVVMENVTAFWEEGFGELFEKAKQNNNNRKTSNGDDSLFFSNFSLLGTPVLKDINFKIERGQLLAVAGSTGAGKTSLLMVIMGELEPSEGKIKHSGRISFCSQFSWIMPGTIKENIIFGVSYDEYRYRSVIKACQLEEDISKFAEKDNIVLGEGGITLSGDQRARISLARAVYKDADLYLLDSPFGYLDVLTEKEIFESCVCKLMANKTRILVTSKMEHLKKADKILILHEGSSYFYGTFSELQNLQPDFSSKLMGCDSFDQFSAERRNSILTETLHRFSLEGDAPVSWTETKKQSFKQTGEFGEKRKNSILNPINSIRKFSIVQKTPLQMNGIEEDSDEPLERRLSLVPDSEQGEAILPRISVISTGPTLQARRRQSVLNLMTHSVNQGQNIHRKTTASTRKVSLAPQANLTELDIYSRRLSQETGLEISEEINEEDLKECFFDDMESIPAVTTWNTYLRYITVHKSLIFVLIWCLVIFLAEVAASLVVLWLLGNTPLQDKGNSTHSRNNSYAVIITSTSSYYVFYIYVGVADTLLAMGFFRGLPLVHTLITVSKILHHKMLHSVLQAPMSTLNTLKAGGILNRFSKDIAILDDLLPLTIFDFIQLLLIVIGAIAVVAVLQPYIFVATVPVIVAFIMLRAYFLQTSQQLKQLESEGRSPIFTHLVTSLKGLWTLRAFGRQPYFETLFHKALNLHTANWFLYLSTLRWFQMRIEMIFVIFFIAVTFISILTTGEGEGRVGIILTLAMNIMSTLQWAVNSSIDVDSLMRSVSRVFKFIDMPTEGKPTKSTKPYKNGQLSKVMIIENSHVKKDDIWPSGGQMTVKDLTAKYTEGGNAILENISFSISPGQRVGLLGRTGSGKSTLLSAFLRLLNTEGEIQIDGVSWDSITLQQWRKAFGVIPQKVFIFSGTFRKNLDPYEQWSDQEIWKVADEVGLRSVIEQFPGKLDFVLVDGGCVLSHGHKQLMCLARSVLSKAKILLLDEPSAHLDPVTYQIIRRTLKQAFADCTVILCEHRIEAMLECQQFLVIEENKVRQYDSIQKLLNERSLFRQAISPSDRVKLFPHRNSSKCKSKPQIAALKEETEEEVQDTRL
T1 sequence (P13569 with tags, fused parts or gaps DEL508-508): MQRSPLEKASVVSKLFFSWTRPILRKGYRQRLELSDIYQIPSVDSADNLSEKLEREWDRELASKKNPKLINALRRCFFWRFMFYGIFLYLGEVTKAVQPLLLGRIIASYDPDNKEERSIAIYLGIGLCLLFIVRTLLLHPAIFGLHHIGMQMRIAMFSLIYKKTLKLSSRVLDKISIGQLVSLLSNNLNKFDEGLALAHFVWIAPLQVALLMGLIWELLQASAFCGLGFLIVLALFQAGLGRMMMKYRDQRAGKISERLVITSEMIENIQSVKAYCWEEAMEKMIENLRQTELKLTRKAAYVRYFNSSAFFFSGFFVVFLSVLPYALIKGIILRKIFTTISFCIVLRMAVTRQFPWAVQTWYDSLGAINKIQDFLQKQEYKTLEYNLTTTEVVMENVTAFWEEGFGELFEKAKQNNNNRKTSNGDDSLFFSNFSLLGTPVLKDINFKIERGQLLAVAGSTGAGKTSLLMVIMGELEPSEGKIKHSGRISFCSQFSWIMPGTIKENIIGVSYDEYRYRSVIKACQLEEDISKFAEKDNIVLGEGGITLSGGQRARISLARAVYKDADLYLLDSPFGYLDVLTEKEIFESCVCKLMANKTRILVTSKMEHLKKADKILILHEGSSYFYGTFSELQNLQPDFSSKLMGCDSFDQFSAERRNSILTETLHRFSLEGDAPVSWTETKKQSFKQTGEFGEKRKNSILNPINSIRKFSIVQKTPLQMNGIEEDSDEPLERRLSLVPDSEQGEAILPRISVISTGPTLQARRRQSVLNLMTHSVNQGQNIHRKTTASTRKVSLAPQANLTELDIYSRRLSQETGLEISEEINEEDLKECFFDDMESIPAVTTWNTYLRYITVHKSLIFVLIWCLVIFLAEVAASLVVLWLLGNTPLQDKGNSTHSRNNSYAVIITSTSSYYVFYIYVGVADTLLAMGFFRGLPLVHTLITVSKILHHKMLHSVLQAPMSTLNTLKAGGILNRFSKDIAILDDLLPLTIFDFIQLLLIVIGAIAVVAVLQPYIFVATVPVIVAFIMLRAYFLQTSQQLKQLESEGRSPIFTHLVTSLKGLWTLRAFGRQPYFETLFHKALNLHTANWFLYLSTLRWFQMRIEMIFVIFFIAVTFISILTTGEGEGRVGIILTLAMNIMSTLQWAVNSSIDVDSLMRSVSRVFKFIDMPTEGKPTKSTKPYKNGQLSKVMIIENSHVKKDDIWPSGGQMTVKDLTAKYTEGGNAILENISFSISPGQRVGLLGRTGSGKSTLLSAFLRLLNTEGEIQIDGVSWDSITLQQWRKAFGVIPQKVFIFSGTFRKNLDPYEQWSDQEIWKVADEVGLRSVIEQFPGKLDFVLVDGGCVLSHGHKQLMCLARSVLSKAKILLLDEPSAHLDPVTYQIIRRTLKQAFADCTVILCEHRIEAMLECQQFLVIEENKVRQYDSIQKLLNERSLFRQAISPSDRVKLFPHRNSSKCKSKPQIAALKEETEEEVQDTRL

Row | EC50 [1] | EC50 [2] | EC50 [3] | SMILES
1 | 60.3 nM | 621 nM | 113 nM | COc1ccc(S(=O)(=O)c2cc(C(N)=O)c(NC(=O)C3(O)CC3)s2)cc1 [Compound 245, 2-(1-hydroxycyclopropanecarboxamido)-5-(4-methoxyphenylsulfonyl) thiophene-3-carboxamide]
2 | 78.5 nM | 627 nM | 75.1 nM | COc1ccc(OC)c(S(=O)(=O)c2cc(C(N)=O)c(NC(=O)C3(O)CC3)s2)c1 [Compound 246, 5-(2,5-dimethoxyphenylsulfonyl)-2-(1-hydroxycyclopropanecarboxamido) thiophene-3-carboxamide]
3 | 10.8 nM | 113 nM | 18.5 nM | NC(=O)c1cc(S(=O)(=O)c2c(Cl)cccc2Cl)sc1NC(=O)C1(O)CC1 [Compound 247, 5-(2,6-dichlorophenylsulfonyl)-2-(1-hydroxycyclopropanecarboxamido) thiophene-3-carboxamide]
4 | 85.8 nM | 1390 nM | 70.1 nM | CC(O)C(=O)Nc1sc(S(=O)(=O)c2ccc(F)cc2)cc1C(N)=O (stereo not drawn) [Compound 248, 5-(4-fluorophenylsulfonyl)-2-(2-hydroxypropanamido) thiophene-3-carboxamide]
5 | 20.8 nM | 1250 nM | 47.2 nM | Cc1cccc(C)c1S(=O)(=O)c1cc(C(N)=O)c(NC(=O)C2(O)CC2)s1 [Compound 251, 5-(2,6-dimethylphenylsulfonyl)-2-(1-hydroxycyclopropanecarboxamido) thiophene-3-carboxamide]
6 | 73 nM | 3330 nM | 50.8 nM | CC(C)(CO)C(=O)Nc1sc(S(=O)(=O)c2ccc(F)cc2)cc1C(N)=O [Compound 253, 5-(4-fluorophenylsulfonyl)-2-(3-hydroxy-2,2-dimethylpropanamido) thiophene-3-carboxamide]
7 | 26.2 nM | 1770 nM | 23.1 nM | NC(=O)c1cc(S(=O)(=O)c2ccc(F)cc2F)sc1NC(=O)C1(O)CC1 [Compound 256, 5-(2,4-difluorophenylsulfonyl)-2-(1-hydroxycyclopropanecarboxamido) thiophene-3-carboxamide]
8 | 16.3 nM | 333 nM | 26.1 nM | NC(=O)c1cc(S(=O)(=O)c2ccccc2C(F)(F)F)sc1NC(=O)C1(O)CC1 [Compound 257, 2-(1-hydroxycyclopropanecarboxamido)-5-(2-(trifluoromethyl)phenylsulfonyl) thiophene-3-carboxamide]
9 | 81.1 nM | 3330 nM | 148 nM | CC1CN(S(=O)(=O)c2cc(C(N)=O)c(NC(=O)c3ccccc3C(F)(F)F)s2)C(C)(C)CO1 (stereo not drawn) [Compound 263, 2-(2-(trifluoromethyl)benzamido)-5-(2,5,5-trimethylmorpholinosulfonyl) thiophene-3-carboxamide]
10 | 30.1 nM | 1020 nM | 19.4 nM | NC(=O)c1cc(S(=O)(=O)c2ccc(F)cc2Br)sc1NC(=O)C1(O)CC1 [Compound 264, 5-(2-bromo-4-fluorophenylsulfonyl)-2-(1-hydroxycyclopropanecarboxamido) thiophene-3-carboxamide]
11 | 42.2 nM | 2000 nM | 91.7 nM | CC(C)Oc1cccc(S(=O)(=O)c2cc(C(N)=O)c(NC(=O)C(C)(C)O)s2)c1 [Compound 265, 2-(2-hydroxy-2-methylpropanamido)-5-(3-isopropoxyphenylsulfonyl) thiophene-3-carboxamide]
12 | 33 nM | 935 nM | 10.1 nM | CC(C)(O)C(=O)Nc1sc(S(=O)(=O)c2cccc(OC(F)(F)F)c2)cc1C(N)=O [Compound 269, 2-(2-hydroxy-2-methylpropanamido)-5-(3-(trifluoromethoxy)phenylsulfonyl) thiophene-3-carboxamide]
13 | 48.9 nM | 771 nM | 102 nM | NC(=O)c1cc(S(=O)(=O)c2ccc(F)cc2)sc1NC(=O)C1CCCC1O (stereo not drawn) [Compound 272, 5-(4-fluorophenylsulfonyl)-2-(2-hydroxycyclopentanecarboxamido) thiophene-3-carboxamide]
14 | 111 nM | 3080 nM | 148 nM | CC(CO)C(=O)Nc1sc(S(=O)(=O)c2ccc(F)cc2)cc1C(N)=O (stereo not drawn) [Compound 273, 5-(4-fluorophenylsulfonyl)-2-(3-hydroxy-2-methylpropanamido) thiophene-3-carboxamide]
15 | 55.5 nM | 614 nM | 116 nM | CC(C)Oc1ccc(S(=O)(=O)c2cc(C(N)=O)c(NC(=O)C(C)(C)O)s2)cc1 [Compound 279, 2-(2-hydroxy-2-methylpropanamido)-5-(4-isopropoxyphenylsulfonyl) thiophene-3-carboxamide]
16 | 28 nM | 1660 nM | 117 nM | NC(=O)c1cc(S(=O)(=O)c2ccc(F)cc2)sc1NC(=O)C1CCCCC1O (stereo not drawn) [Compound 280, 5-(4-fluorophenylsulfonyl)-2-(2-hydroxycyclohexanecarboxamido) thiophene-3-carboxamide]
17 | 41.1 nM | 1540 nM | 136 nM | CC(C)Oc1cc(F)ccc1S(=O)(=O)c1cc(C(N)=O)c(NC(=O)C(C)(C)O)s1 [Compound 281, 5-(4-fluoro-2-isopropoxyphenylsulfonyl)-2-(2-hydroxy-2-methylpropanamido) thiophene-3-carboxamide]
18 | 47.7 nM | 564 nM | 69.6 nM | CC(C)(O)C(=O)Nc1sc(S(=O)(=O)c2ccc(F)cc2OC(F)F)cc1C(N)=O [Compound 283, 5-(2-(difluoromethoxy)-4-fluorophenylsulfonyl)-2-(2-hydroxy-2-methylpropanamido) thiophene-3-carboxamide]
19 | 51 nM | 793 nM | 85.2 nM | COc1ccc(S(=O)(=O)c2cc(C(N)=O)c(NC(=O)C(C)(C)O)s2)c(OC(F)F)c1 [Compound 284, 5-(2-(difluoromethoxy)-4-methoxyphenylsulfonyl)-2-(2-hydroxy-2-methylpropanamido) thiophene-3-carboxamide]
20 | 31.1 nM | 191 nM | 28.4 nM | CC(C)(O)C(=O)Nc1sc(S(=O)(=O)c2ccccc2C(F)(F)F)cc1C(N)=O [Compound 289, 2-(2-hydroxy-2-methylpropanamido)-5-(2-(trifluoromethyl)phenylsulfonyl) thiophene-3-carboxamide]
21 | 81.2 nM | 1510 nM | 17.3 nM | C[C@H](O)C(=O)Nc1sc(S(=O)(=O)c2ccc(F)cc2)cc1C(N)=O [Compound 291, (S)-5-(4-fluorophenylsulfonyl)-2-(2-hydroxypropanamido) thiophene-3-carboxamide]
22 | 70 nM | 2280 nM | 182 nM | CN(C)c1cccc(S(=O)(=O)c2cc(C(N)=O)c(NC(=O)C(C)(C)O)s2)c1 [Compound 292, 5-(3-(dimethylamino)phenylsulfonyl)-2-(2-hydroxy-2-methylpropanamido) thiophene-3-carboxamide]
23 | 15.1 nM | 110 nM | 7.6 nM | CC(C)c1ccccc1S(=O)(=O)c1cc(C(N)=O)c(NC(=O)C(C)(C)O)s1 [Compound 293, 2-(2-hydroxy-2-methylpropanamido)-5-(2-isopropylphenylsulfonyl) thiophene-3-carboxamide]
24 | 95.2 nM | 1010 nM | 35.6 nM | COc1ccc(F)cc1S(=O)(=O)c1cc(C(N)=O)c(NC(=O)C(C)(C)O)s1 [Compound 295, 5-(5-fluoro-2-methoxyphenylsulfonyl)-2-(2-hydroxy-2-methylpropanamido) thiophene-3-carboxamide]
25 | 11.3 nM | 307 nM | 8.1 nM | CC(C)(O)C(=O)Nc1sc(S(=O)(=O)c2ccccc2CC(F)(F)F)cc1C(N)=O [Compound 302, 2-(2-hydroxy-2-methylpropanamido)-5-(2-(2,2,2-trifluoroethyl)phenylsulfonyl) thiophene-3-carboxamide]
26 | 37.5 nM | 1670 nM | 8.5 nM | CC(C)(O)C(=O)Nc1sc(S(=O)(=O)c2cc(Cl)ccc2F)cc1C(N)=O [Compound 303, 5-(5-chloro-2-fluorophenylsulfonyl)-2-(2-hydroxy-2-methylpropanamido) thiophene-3-carboxamide]
27 | 78.5 nM | 3330 nM | 109 nM | CN(c1ccc(F)cc1)S(=O)(=O)c1cc(C(N)=O)c(NC(=O)C(C)(C)O)s1 [Compound 304, 5-(N-(4-fluorophenyl)-N-methylsulfamoyl)-2-(2-hydroxy-2-methylpropanamido) thiophene-3-carboxamide]
28 | 31.5 nM | 803 nM | 23.9 nM | CN(Cc1ccc(F)cc1)S(=O)(=O)c1cc(C(N)=O)c(NC(=O)C(C)(C)O)s1 [Compound 305, 5-(N-(4-fluorobenzyl)-N-methylsulfamoyl)-2-(2-hydroxy-2-methylpropanamido) thiophene-3-carboxamide]
29 | 32.8 nM | 793 nM | 28.5 nM | CC(C)(O)C(=O)Nc1sc(S(=O)(=O)N2CCOc3ccccc32)cc1C(N)=O [Compound 307, 5-(2H-benzo[b][1,4]oxazin-4(3H)-ylsulfonyl)-2-(2-hydroxy-2-methylpropanamido) thiophene-3-carboxamide]
